Experimental data reported in patent publication US10273226B2, “Pyrazolyl-heteroarylamides as pesticides” (Bayer Animal Health GmbH, priority 2014, dated 2019).

Experiments:
Format in all cases: in vivo
Lucilia cuprina = Lucilia cuprina test; settings: application rate 100 ppm; L1 larvae; after 2 days
In short: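 About 20 L1 larvae placed in vessels with minced horsemeat treated with compound (DMSO concentrate diluted in water) at the desired concentration. Kill (%) scored after 2 days; 100% means all larvae dead, 0% none.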

Spodoptera frugiperda = Spodoptera frugiperda spray test; settings: application rate 100 g/ha; caterpillars; after 7 days
In short: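 Maize leaf discs were sprayed with compound formulated in solvent plus water containing 1000 ppm emulsifier, dried, then infested with Spodoptera frugiperda caterpillars. Efficacy in % mortality was scored after 7 days (100% all killed, 0% none).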

Rhipicephalus sanguineus = Rhipicephalus sanguineus in vitro contact test with adult brown dog ticks; settings: application rate 5 μg/cm^2 (500 g/ha); after 48 h; ticks dead or moribund
In short: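 Test tubes (25 ml) were coated by dissolving active ingredient in acetone p.a., diluting to the required concentration, and spreading 250 μl over the inner walls and base on an orbital shaker at 30 rpm for 2 h. Once dry, 5-10 adult Rhipicephalus sanguineus were added, and tubes were capped with perforated lids and kept horizontal in darkness at room temperature. At 48 h, ticks were knocked down and heated at 45-50° C. for up to 5 min. Those unable to climb away were counted dead or moribund, and efficacy ran from 0% to 100%.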

[1] = test system: Boophilus microplus Parkhurst strain, SP-resistant; assay: Boophilus microplus dip test; settings: application rate 100 ppm, assessed after 7 days
Description: Boophilus microplus—Dip Test
Test animals: cattle ticks (Boophilus microplus) Parkhurst strain, SP-resistant
Solvent: dimethyl sulphoxide
10 mg of active ingredient are dissolved in 0.5 ml of dimethyl sulphoxide. For the purpose of producing a suitable formulation, the active ingredient solution is diluted with water to the concentration desired in each case.
This active ingredient formulation is pipetted into tubes. 8-10 adult engorged female cattle ticks (Boophilus microplus) are transferred into a further tube with holes. The tube is immersed into the active ingredient formulation, and all the ticks are completely wetted. After the liquid has run out, the ticks are transferred on filter discs into plastic dishes and stored in a climate-controlled room.
Efficacy is assessed after 7 days by laying of fertile eggs. Eggs which are not visibly fertile are stored in a climate-controlled cabinet until the larvae hatch after about 42 days. An efficacy of 100% means that none of the ticks has laid any fertile eggs; 0% means that all the eggs are fertile.

Phaedon cochleariae = Phaedon cochleariae spray test; settings: application rate 100 g/ha; larvae; after 7 days
In short: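 Chinese cabbage leaf discs were sprayed with the compound formulated in water containing 1000 ppm emulsifier. After drying, they were infested with mustard beetle larvae. Efficacy was scored as % larvae killed after 7 days (100% = all dead, 0% = none).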

Ctenocephalides felis [2] = assay: Ctenocephalides felis in vitro contact test with adult cat fleas; settings: application rate 5 μg/cm^2 (500 g/ha); after 48 h; fleas dead or moribund
In short: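 Test tubes were coated with 250 μl acetone solution of compound, giving 5 μg/cm^2 at 900 ppm, then dried and stocked with 5-10 adult cat fleas. After 48 h at room temperature and ambient humidity, dead or moribund fleas were counted; efficacy given as % (100% = all dead or moribund).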

Ctenocephalides felis [3] = assay: Ctenocephalides felis oral test; settings: application rate 100 ppm in citrated cattle blood; after 2 days
In short: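 Mortality in % was recorded 2 days after about 20 unfed adult cat fleas were allowed to imbibe citrated cattle blood containing the active ingredient through a parafilm membrane. The compound was first taken up in DMSO and then diluted with the blood to the desired concentration.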

Musca domestica = Musca domestica test; settings: application rate 100 ppm; adult houseflies; after 2 days
In short: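 Percent kill of adult houseflies is recorded 2 days after exposure, where 100% denotes all flies dead and 0% none. Flies (10 per vessel) feed from a sponge carrying sugar solution and the aqueous-diluted DMSO formulation.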

Myzus persicae = Myzus persicae spray test; settings: application rate 100 g/ha; after 6 days
Description: Myzus persicae—Spray Test
To produce an appropriate active ingredient formulation, 1 part by weight of active ingredient is dissolved using the specified parts by weight of solvent and made up with water containing an emulsifier concentration of 1000 ppm until the desired concentration is attained. To produce further test concentrations, the preparation is diluted with emulsifier-containing water.
Discs of Chinese cabbage leaves (Brassica pekinensis) infested by all stages of the green peach aphid (Myzus persicae) are sprayed with an active ingredient formulation of the desired concentration.
After 6 days, efficacy in % is determined. 100% means that all the aphids have been killed; 0% means that none of the aphids have been killed.

Boophilus microplus = Boophilus microplus injection test; settings: application rate 20 μg/animal; injection into abdomen; assessed after 7 days
In short: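 Steps: dilute compound in DMSO to the desired concentration; inject 1 μl abdominally into 5 engorged adult females; keep in climate-controlled dishes; at 7 days score fertile egg laying, incubating doubtful eggs until hatch at about 42 days.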

Tetranychus urticae = Tetranychus urticae spray test, OP-resistant; settings: application rate 100 g/ha; after 6 days
In short: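 Bean leaf discs (Phaseolus vulgaris) carrying all stages of OP-resistant mites are sprayed with compound formulated in solvent and emulsifier-containing water. Efficacy (% mites killed) is scored after 6 days.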

Structure (SMILES) | efficacy (kill in %) (Lucilia cuprina) [%] | efficacy (Spodoptera frugiperda) [%] | efficacy (Rhipicephalus sanguineus) [%] | efficacy (laying of fertile eggs) [1] [%] | efficacy (Phaedon cochleariae) [%] | efficacy (Ctenocephalides felis [2]) [%] | efficacy (kill in %) (Ctenocephalides felis [3]) [%] | efficacy (kill in %) (Musca domestica) [%] | efficacy (Myzus persicae) [%] | efficacy (laying of fertile eggs) (Boophilus microplus) [%] | efficacy (Tetranychus urticae) [%]
Cn1nc(C(F)(F)C(F)(F)F)c(C(F)(F)F)c1-n1cc(-c2ccc(F)c(NC(=O)c3ccc(F)nc3)c2)cn1 [Example 1-100] | 100 | 100 | 100 | 100 | 100 | 100 | 100 | 100 | 100 | 100 | 100
Cn1nc(C(F)(F)C(F)(F)F)c(C(F)(F)F)c1-n1cc(-c2ccc(F)c(NC(=O)c3ccccc3)c2)cn1 [Example 1-026] | 100 | 100 | 100 | 100 | 100 | 100 | 100 | 90 | 100 | 100 | 100
Cn1nc(C(F)(F)C(F)(F)F)c(C(F)(F)F)c1-n1cc(-c2ccc(F)c(NC(=O)c3cccc(F)c3)c2)cn1 [Example 1-073] | 100 | 100 | 100 | 100 | 100 | 100 | 100 | 90 | – | 100 | 100
Cc1ccc(C(=O)Nc2cc(-c3cnn(-c4c(C(F)(F)F)c(C(F)(F)C(F)(F)F)nn4C)c3)ccc2F)cc1 [Example 1-060] | 100 | 83 | 100 | 100 | 100 | 80 | 100 | – | – | 100 | 100
Cn1nc(C(F)(F)C(F)(F)F)c(C(F)(F)F)c1-n1cc(-c2ccc(F)c(NC(=O)c3ccc(C#N)nc3)c2)cn1 [Example 1-098] | 100 | 100 | 80 | 100 | 100 | 100 | 100 | – | 100 | 100 | 100
Cn1nc(C(F)(F)C(F)(F)F)c(C(F)(F)F)c1-n1cc(-c2cccc(NC(=O)c3ccncc3F)c2)cn1 [Example 1-004] | 100 | 100 | 100 | 100 | 100 | 100 | 100 | 100 | – | 100 | 100
Cn1nc(C(F)(F)C(F)(F)F)c(C(F)(F)F)c1-n1cc(-c2cnc(Cl)c(NC(=O)c3ccc(F)cc3)c2)cn1 [Example 2-001] | 100 | 100 | 100 | 80 | 100 | – | 100 | 100 | – | 100 | 100
Cn1nc(C(F)(F)C(F)(F)F)c(C(F)(F)F)c1-n1cc(-c2ccc(F)c(NC(=O)c3ccnc(F)c3)c2)cn1 [Example 1-089] | 100 | 100 | 100 | 100 | 100 | 100 | 100 | 100 | 90 | 100 | 100
CN(C(=O)c1ccc(F)cc1)c1cc(-c2cnn(-c3c(C(F)(F)F)c(C(F)(F)C(F)(F)F)nn3C)c2)ccc1F [Example 1-037] | 100 | 100 | – | 80 | 100 | 100 | 100 | 90 | – | 100 | –
Cc1cccc(C(=O)Nc2cc(-c3cnn(-c4c(C(F)(F)F)c(C(F)(F)C(F)(F)F)nn4C)c3)ccc2F)c1C [Example 1-080] | – | – | – | 100 | – | – | 95 | – | – | 100 | –
Cn1nc(C(F)(F)C(F)(F)F)c(C(F)(F)F)c1-n1cc(-c2ccc(F)c(NC(=O)c3ccc(Cl)nc3)c2)cn1 [Example 1-099] | 100 | 100 | 100 | 100 | 100 | 100 | 100 | 100 | 100 | 100 | 100
Cn1nc(C(F)(F)C(F)(F)F)c(C(F)(F)F)c1-n1cc(-c2cccc(NC(=O)c3ccccc3)c2)cn1 [Example 1-010] | 100 | 100 | 100 | 90 | 100 | 100 | 100 | 100 | 100 | 100 | 100
COc1cc(C(=O)Nc2cc(-c3cnn(-c4c(C(F)(F)F)c(C(F)(F)C(F)(F)F)nn4C)c3)ccc2F)ccc1F [Example 1-094] | 100 | 83 | 100 | 100 | 100 | 100 | 100 | 100 | – | 100 | 100
COc1cccc(C(=O)Nc2cc(-c3cnn(-c4c(C(F)(F)F)c(C(F)(F)C(F)(F)F)nn4C)c3)ccc2F)c1 [Example 1-042] | 100 | – | 100 | 90 | 100 | – | 100 | – | – | 100 | 100
Cn1nc(C(F)(F)C(F)(F)F)c(C(F)(F)F)c1-n1cc(-c2ccc(F)c(NC(=O)c3cccs3)c2)cn1 [Example 1-049] | 100 | – | 100 | 100 | – | 100 | 100 | 80 | – | 100 | –
